Assay results: US20210337817A1, “COMPOUNDS AND FORMULATIONS FOR PROTECTIVE COATINGS” (Apeel Technology, Inc., priority 2018, published 2021)
Entries after “also recorded” stand apart in the source; their conditions may differ.

How the values were obtained:
finger limes = experiment: Average daily mass loss rate of coated finger limes; conditions: coating agent 10 mg/mL in ethanol, 23-27° C., humidity 40-55%, untreated 5.3%
Excerpt: As used herein, the “mass loss rate” refers to the rate at which the product loses mass (e.g. by releasing water and other volatile compounds). The mass loss rate is typically expressed as a percentage of the original mass per unit time (e.g. percent per day).
FIG. 1 is a graph showing average daily mass loss rates for finger limes coated with various mixtures of PA-2G and PA-1G measured over the course of several days. Each bar in the graph represents average daily mass loss rates for a group of 24 finger limes. The finger limes corresponding to bar 102 were untreated. The finger limes corresponding to bar 104 were coated with a coating agent that was substantially pure PA-1G. The finger limes corresponding to bar 106 were coated with a coating agent that was about 75% PA-1G and 25% PA-2G by mass. The finger limes corresponding to bar 108 were coated with a coating agent that was about 50% PA-1G and 50% PA-2G by mass. The finger limes corresponding to bar 110 were coated with a coating agent that was about 25% PA-1G and 75% PA-2G by mass. The finger limes corresponding to bar 112 were coated with a coating agent that was substantially pure PA-2G. The coating agents were each dissolved in ethanol at a concentration of 10 mg/mL to form solutions, and the solutions were applied to the surface of the corresponding finger limes to form the coatings. […]

avocados = experiment: Skin damage of treated avocados (photograph); conditions: 5 mg/mL in water, no long chain fatty acid esters/salts (FIG. 5)
Excerpt: Medium chain fatty acids (e.g., having a carbon chain length in a range of 7 to 13) and/or salts or esters thereof can also be used as coating agents to form coatings over produce or other plant matter or agricultural products using the methods described above.
[…] […] Prior to treatment, the avocado skin was virtually entirely green (not shown).

[1] = Contact angle on paraffin wax, direct or primed surface; format: physicochemical; conditions: paraffin wax primed with CA-1G 3 mg/mL in water and dried, then pure water drops
Procedure: For bar 1601, the solvent was pure water. […] The mixture corresponding to bar 1603 was the same as that of bar 1602 but also included 3 mg/mL of CA-1G. For bar 1604, a mixture of CA-1G at a concentration of 3 mg/mL in water was first deposited on the surface of the paraffin wax and then allowed to dry in order to prime the surface. Afterward, the contact angle of water on the primed surface was determined. For bar 1605, a mixture of CA-1G at a concentration of 3 mg/mL in water was first deposited on the surface of the paraffin wax and then allowed to dry in order to prime the surface. Afterward, the contact angle of a mixture of SA-1G and SA-Na at a mass ratio of 95:5 dispersed in water at a concentration of 45 mg/mL on the primed surface was determined.

SMILES	average daily mass loss rate (finger limes) [% per day]	further results
CCCCCCCCCCCCCCCC(=O)OC(CO)CO [PA-2G, 1,3-dihydroxypropan-2-yl palmitate]	3.7	–
CCCCCCCCCCC(=O)OCC(O)CO (stereo not shown) [UA-1G, 2,3-dihydroxypropan-1-yl undecanoate]	–	skin damage of avocados after treatment (avocados): high density of black discolored regions; also recorded: extensive skin damage
CCCCCCCCCC(=O)OCC(O)CO (stereo not shown) [CA-1G, 2,3-dihydroxypropan-1-yl decanoate]	–	average contact angle of water on primed surface [1]: 24 °
CCCCCCCCCCCCCCCC(=O)OCC(O)CO (stereo not shown) [PA-1G, 2,3-dihydroxypropan-1-yl palmitate]	4.3	–
